# In patent US9708266B2, “Cyclohexyl pyridine derivative” (priority 2014, dated 2017):
# Molecular target: NK1 receptor (Meriones unguiculatus (Mongolian jird) (Gerbillus unguiculatus), UniProt Q5DUB1)
# Assay: Effect on GR73632-induced foot-tapping
# Assay type: in vivo
# Conditions: male gerbil, 0.1 mg/kg iv, GR73632 icv after four hours
# Description: The test compound solution was prepared by dissolving the test compound in a vehicle (a mixture of 50% N,N-dimethylacetamide (Wako Pure Chemical Industries), 30% propylene glycol (Wako Pure Chemical Industries), 4% 2-hydroxypropyl-[…] (Wako Pure Chemical Industries) and 16% distilled water).
# A male gerbil (Japan SLC) was anesthetized with isoflurane, and 0.1 mg/kg of a test compound was administered from the jugular vein. After four hours, GR73632 (5 pmol/5 μl saline), which is an NK1 receptor agonist, was administered into the cerebral ventricle at the part 1 mm lateral to and 4.5 mm below the bregma in the head, under anesthesia with isoflurane. After the administration, the gerbil was moved to an observation cage, and the foot-tapping period during 30 minutes after the recovery of the righting reflex was measured. The foot-tapping inhibition rate (%) of each test compound was calculated by the following equation. Foot-tapping inhibition rate (%)={1−(Foot-tapping period when test compound was administered)/(Foot-tapping period when solvent was administered)}×100 (2) Measurement of Drug Concentrations
# NK1 receptor, sequence (Q5DUB1 whole entry): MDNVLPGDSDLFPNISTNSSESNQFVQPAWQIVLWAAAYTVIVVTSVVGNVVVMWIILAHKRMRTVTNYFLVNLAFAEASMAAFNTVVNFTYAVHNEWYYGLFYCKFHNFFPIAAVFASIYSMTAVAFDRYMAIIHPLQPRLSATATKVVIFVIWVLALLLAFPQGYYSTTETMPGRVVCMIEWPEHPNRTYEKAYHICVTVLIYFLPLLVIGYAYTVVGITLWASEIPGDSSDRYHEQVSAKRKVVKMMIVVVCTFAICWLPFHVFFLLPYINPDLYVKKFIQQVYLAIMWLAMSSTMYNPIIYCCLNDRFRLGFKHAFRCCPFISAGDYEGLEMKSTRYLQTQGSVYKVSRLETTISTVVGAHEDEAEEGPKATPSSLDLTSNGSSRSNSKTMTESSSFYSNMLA
row,Inhibition (foot-tapping inhibition rate) [%],Structure (SMILES)
1,98,"Cc1cc(F)ccc1-c1cc(C2CCC(C(=O)O)CC2)ncc1N(C)C(=O)C(C)(C)c1cc(C(F)(F)F)cc(C(F)(F)F)c1 (stereo not drawn) [Example 1, 4-[5-{[2-(3,5-Bistrifluoromethylphenyl)-2-methylpropionyl]methylamino}-4-(4-fluoro-2-methylphenyl)pyridin-2-yl]cyclohexanecarboxylic acid]"
2,100,"Cc1cc(F)ccc1-c1cc(C2CCCC(CC(=O)O)C2)ncc1N(C)C(=O)C(C)(C)c1cc(C(F)(F)F)cc(C(F)(F)F)c1 (stereo not drawn) [Example 3, {3-[5-{[2-(3,5-Bistrifluoromethylphenyl)-2-methylpropionyl]methylamino}-4-(4-fluoro-2-methylphenyl)pyridin-2-yl]cyclohexyl}acetic acid]"
3,77,"Cc1cc(F)ccc1-c1cc(C2(C)CCCC(CC(=O)O)C2)ncc1N(C)C(=O)C(C)(C)c1cc(C(F)(F)F)cc(C(F)(F)F)c1 (stereo not drawn) [Example 4, {3-[5-{[2-(3,5-Bistrifluoromethylphenyl)-2-methylpropionyl]methylamino}-4-(4-fluoro-2-methylphenyl)pyridin-2-yl]-3-methylcyclohexyl}acetic acid]"
4,90,"Cc1cc(F)ccc1-c1cc(C2CCC3(CC2)CC3C(=O)O)ncc1N(C)C(=O)C(C)(C)c1cc(C(F)(F)F)cc(C(F)(F)F)c1 (stereo not drawn) [Example 7, 6-[5-{[2-(3,5-Bistrifluoromethylphenyl)-2-methylpropionyl]methylamino}-4-(4-fluoro-2-methylphenyl)pyridin-2-yl]spiro[2.5]octane-1-carboxylic acid]"
5,100,"Cc1cc(F)ccc1-c1cc(C2CCC(CC(=O)O)CC2)nc(C#N)c1N(C)C(=O)C(C)(C)c1cc(C(F)(F)F)cc(C(F)(F)F)c1 (stereo not drawn) [Example 8, {4-[5-{[2-(3,5-Bistrifluoromethylphenyl)-2-methylpropionyl]methylamino}-6-cyano-4-(4-fluoro-2-methylphenyl)pyridin-2-yl]cyclohexyl}acetic acid]"
6,75,"Cc1ccccc1-c1cc(C2CCC(CC(=O)O)CC2)ncc1N(C)C(=O)C(C)(C)c1cc(C(F)(F)F)cc(C(F)(F)F)c1 (stereo not drawn) [Example 9, {4-[5-{[2-(3,5-Bistrifluoromethylphenyl)-2-methylpropionyl]methylamino}-4-ortho-tolylpyridin-2-yl]-cyclohexyl}acetic acid]"
7,97,"Cc1cc(F)ccc1-c1cc(C2CCC(C(C)C(=O)O)CC2)ncc1N(C)C(=O)C(C)(C)c1cc(C(F)(F)F)cc(C(F)(F)F)c1 (stereo not drawn) [Example 10, 2-{4-[5-{[2-(3,5-Bistrifluoromethylphenyl)-2-methylpropionyl]methylamino}-4-(4-fluoro-2-methylphenyl)pyridin-2-yl]cyclohexyl}propionic acid]"
8,95,"Cc1cc(F)ccc1-c1cc([C@H]2CC[C@H](C(C)(C)C(=O)O)CC2)ncc1N(C)C(=O)C(C)(C)c1cc(C(F)(F)F)cc(C(F)(F)F)c1 [Example 11, trans-2-{4-[5-{[2-(3,5-Bistrifluoromethylphenyl)-2-methylpropionyl]methylamino}-4-(4-fluoro-2-methylphenyl)pyridin-2-yl]cyclohexyl}-2-methylpropionic acid]"
9,99,"Cc1cc(F)ccc1-c1cc([C@H]2CC[C@@H](CC(=O)O)CC2)ncc1N(C)C(=O)C(C)(C)c1cc(C(F)(F)F)cc(C(F)(F)F)c1 [Example 14, cis-{4-[5-{[2-(3,5-bistrifluoromethylphenyl)-2-methylpropionyl]methylamino}-4-(4-fluoro-2-methylphenyl)pyridin-2-yl]cyclohexyl}acetic acid]"
10,100,"Cc1cc(F)ccc1-c1cc(C2CCC(C)(CC(=O)O)CC2)ncc1N(C)C(=O)C(C)(C)c1cc(C(F)(F)F)cc(C(F)(F)F)c1 (stereo not drawn) [Example 15, {4-[5-{[2-(3,5-Bistrifluoromethylphenyl)-2-methylpropionyl]methylamino}-4-(4-fluoro-2-methylphenyl)pyridin-2-yl]-1-methylcyclohexyl}acetic acid]"
11,93,"Cc1ccccc1-c1cc(C2CCC(CC(=O)O)CC2)nc(C#N)c1N(C)C(=O)C(C)(C)c1cc(C(F)(F)F)cc(C(F)(F)F)c1 (stereo not drawn) [Example 16, [4-(5-{[2-(3,5-Bistrifluoromethylphenyl)-2-methylpropionyl]methylamino}-6-cyano-4-ortho-tolylpyridin-2-yl)cyclohexyl]acetic acid]"
12,100,"Cc1cc(F)ccc1-c1cc(C2CCC(CC(=O)O)CC2)nc(C)c1N(C)C(=O)C(C)(C)c1cc(C(F)(F)F)cc(C(F)(F)F)c1 (stereo not drawn) [Example 18, {4-[5-{[2-(3,5-Bistrifluoromethylphenyl)-2-methylpropionyl]methylamino}-4-(4-fluoro-2-methylphenyl)-6-methylpyridin-2-yl]cyclohexyl}acetic acid]"
13,95,"Cc1cc(F)ccc1-c1cc(C2CCC(CC(=O)O)CC2)nc(CO)c1N(C)C(=O)C(C)(C)c1cc(C(F)(F)F)cc(C(F)(F)F)c1 (stereo not drawn) [Example 19, {4-[5-{[2-(3,5-Bistrifluoromethylphenyl)-2-methylpropionyl]methylamino}-4-(4-fluoro-2-methylphenyl)-6-hydroxymethylpyridin-2-yl]cyclohexyl}acetic acid]"
14,100,"Cc1cc(F)ccc1-c1cc([C@H]2CC[C@H](CC(=O)O)CC2)nc(C#N)c1N(C)C(=O)C(C)(C)c1cc(C(F)(F)F)cc(C(F)(F)F)c1 [Example 20, trans-{4-[5-{[2-(3,5-Bistrifluoromethylphenyl)-2-methylpropionyl]methylamino}-6-cyano-4-(4-fluoro-2-methylphenyl)pyridin-2-yl]cyclohexyl}acetic acid]"
15,100,"Cc1cc(F)ccc1-c1cc([C@H]2CC[C@@H](CC(=O)O)CC2)nc(C#N)c1N(C)C(=O)C(C)(C)c1cc(C(F)(F)F)cc(C(F)(F)F)c1 [Example 21, cis-{4-[5-{[2-(3,5-bistrifluoromethylphenyl)-2-methylpropionyl]methylamino}-6-cyano-4-(4-fluoro-2-methylphenyl)pyridin-2-yl]cyclohexyl}acetic acid]"
